Laboratory results taken from the NIST ThermoML archive (doi:10.1016/j.jct.2013.01.013).
Numbers after ± are expanded uncertainties.

Experiment: xn = mol fraction of the nth substance listed
Settings: 101 kPa, Liquid; for mass density: Pycnometric method; for viscosity: Capillary tube (Ostwald / Ubbelohde) method; for speed of sound: Linear variable-path acoustic interferometer

C=C(C)C(=O)OC [methyl methacrylate] + CC(=O)N(C)C
Settings | mass density, 293.15 K [kg/m3] | mass density, 298.15 K [kg/m3] | speed of sound, 298.15 K [m/s] | speed of sound, 303.15 K [m/s] | viscosity, 298.15 K [mPa·s] | viscosity, 303.15 K [mPa·s]
x1 = 0.0714 | – | 936.89 ± 0.27 | 1448.2 ± 1.6 | 1429.5 ± 1.6 | 0.9087 ± 0.0077 | 0.8475 ± 0.0072
x1 = 0.144 | – | 937.25 ± 0.27 | 1433.9 ± 1.6 | 1415.5 ± 1.6 | 0.8736 ± 0.0074 | 0.8152 ± 0.007
x1 = 0.2125 | – | 937.54 ± 0.27 | 1418.5 ± 1.6 | 1400.7 ± 1.6 | 0.8414 ± 0.0072 | 0.7858 ± 0.0067
x1 = 0.2823 | 942.55 ± 0.26 | 937.79 ± 0.26 | 1400.8 ± 1.5 | 1383.5 ± 1.5 | 0.8102 ± 0.0069 | 0.7573 ± 0.0065
x1 = 0.3568 | 942.84 ± 0.25 | 937.99 ± 0.26 | 1381 ± 1.5 | 1363.9 ± 1.5 | 0.7782 ± 0.0067 | 0.7278 ± 0.0063
x1 = 0.4318 | 943.08 ± 0.25 | 938.14 ± 0.26 | 1359.8 ± 1.5 | 1342.9 ± 1.5 | 0.7473 ± 0.0064 | 0.6995 ± 0.0061
x1 = 0.5046 | 943.28 ± 0.25 | 938.25 ± 0.26 | 1338 ± 1.5 | 1321.2 ± 1.5 | 0.7186 ± 0.0062 | 0.6733 ± 0.0059
x1 = 0.5769 | 943.43 ± 0.25 | 938.31 ± 0.26 | 1315.4 ± 1.5 | – | 0.6915 ± 0.006 | 0.649 ± 0.0057
x1 = 0.6512 | 943.52 ± 0.25 | 938.31 ± 0.26 | 1291.5 ± 1.5 | – | 0.665 ± 0.0058 | 0.6253 ± 0.0055
x1 = 0.7205 | 943.58 ± 0.25 | 938.28 ± 0.26 | 1269.3 ± 1.4 | – | 0.6416 ± 0.0056 | 0.6042 ± 0.0054
x1 = 0.7845 | 943.59 ± 0.25 | 938.21 ± 0.26 | 1248.9 ± 1.4 | – | 0.6207 ± 0.0055 | 0.5853 ± 0.0052
x1 = 0.8558 | 943.54 ± 0.25 | 938.05 ± 0.26 | 1226.9 ± 1.4 | – | 0.5983 ± 0.0053 | 0.565 ± 0.0051
x1 = 0.9281 | 943.46 ± 0.25 | 937.85 ± 0.26 | 1204.6 ± 1.4 | – | 0.5763 ± 0.0052 | 0.545 ± 0.0049
x1 = 1 | 943.37 ± 0.25 | 937.63 ± 0.25 | 1183.6 ± 1.4 | – | 0.5544 ± 0.005 | 0.5251 ± 0.0048
